Results reported in patent US8609084B2, “Protection of plants against their pathogenic agents” (Lesaffre et Compagnie, priority 2005, dated 2013).

System: Venturia inaequalis
Test: Efficiency against scab, grafted apple plants in pots
Format: in vivo
Design: Efficiency (%) Leaves treated / Efficiency (%) All leaves / Efficiency (%) New leaves: concentration or dose not given beside the values
Description: The test was carried out on grafted plants, in pots. Three species were used: ‘Reinette des Capucins’, ‘Jonagold’, and ‘Reinette de Waleffe’, grafted on M9 rootstock. The plants were grown under a plastic tunnel at different times, so that they were all at the same stage at the time of the trial: starting with Reinette de Waleffe, then 15 days later, Reinette des Capucins, then 1 week later, Jonagold.
The plants were labelled with the variety and the method of treatment received before inoculation.
The method of treatment, preparation of the inoculum, inoculation and observations are similar to those described in example 1.
The plants were treated twice, successively, 10 days apart. The day following the second treatment, the last extended leaf ? F1 ? was identified.
Two days after the second treatment, the pathogen (Venturia inaequalis) was inoculated using a dose of 1.5×10^5 conidia/ml, directly in the moist room. Inoculation is followed by a 48 hours incubation in moist room at 18° C., then the plants remained in the boxes with a temperature of 18°±2° C. and a relative humidity of 80±10%.
The study was organised as follows:
The OY2 yeast cell walls correspond to an acqueous suspension at 25 mg/l of the Springcell 8001 product from Biospringer SAS, (Maisons-Alfort), France), with 96% cell walls of dry matter content.
The observations were made on the 21st day after the inoculation of the last 2 treated leaves (F2 and F1) and on the leaf newly formed after treatment (F0) for about 25 leaves per subject.
An observation at 41 days after the treatment gave the following results.
At this time, new leaves had extended: F-1 and F-2, and the disease progressed by natural contamination, without any re-inoculation.

[1] = All varieties, 21st day after inoculation
[2] = All varieties, 41 days after the treatment
[3] = Capucins, 21st day after inoculation
[4] = Capucins, 41 days after the treatment
[5] = Jonagold, 21st day after inoculation
[6] = Jonagold, 41 days after the treatment
[7] = Waleffe, 21st day after inoculation
[8] = Waleffe, 41 days after the treatment

## CC(N)CC(=O)O (stereo not drawn) [baba, β-aminobutyric acid]
[1]
  Efficiency (%) All leaves: 47.2%
  Efficiency (%) F0: 27.0%
  Efficiency (%) F1: 47.1%
  Efficiency (%) F2: 67.6%
  Efficiency (%) Leaves treated: 57.4%
  Sporulant surface/leaf (%) F0: 13.0%
  Sporulant surface/leaf (%) F1: 15.4%
  Sporulant surface/leaf (%) F2: 9.6%
[2]
  Efficiency (%) All leaves: 54.2%
  Efficiency (%) New leaves: 40.1%
  Efficiency (%) Treated leaves: 68.1%
  Sporulant surface/leaf (%) F0: 31.0%
  Sporulant surface/leaf (%) F1: 26.7%
  Sporulant surface/leaf (%) F2: 10.0%
  Sporulant surface/leaf (%) F-1: 28.2%
  Sporulant surface/leaf (%) F-2: 8.6%
[3]
  Efficiency (%) All leaves: 60.3%
  Efficiency (%) F0: 45.3%
  Efficiency (%) F1: 59.8%
  Efficiency (%) F2: 75.8%
  Efficiency (%) Leaves treated: 67.8%
  Sporulant surface/leaf (%) F0: 4.3%
  Sporulant surface/leaf (%) F1: 8.0%
  Sporulant surface/leaf (%) F2: 4.2%
[4]
  Efficiency (%) All leaves: 77.1%
  Efficiency (%) New leaves: 55.5%
  Efficiency (%) Treated leaves: 88.2%
  Sporulant surface/leaf (%) F0: 14.07%
  Sporulant surface/leaf (%) F1: 10.62%
  Sporulant surface/leaf (%) F2: 4.00%
  Sporulant surface/leaf (%) F-1: 9.95%
  Sporulant surface/leaf (%) F-2: 4.00%
[5]
  Efficiency (%) All leaves: 57.9%
  Efficiency (%) F0: 38.0%
  Efficiency (%) F1: 50.5%
  Efficiency (%) F2: 85.1%
  Efficiency (%) Leaves treated: 67.8%
  Sporulant surface/leaf (%) F0: 13.9%
  Sporulant surface/leaf (%) F1: 17.9%
  Sporulant surface/leaf (%) F2: 6.0%
[6]
  Efficiency (%) All leaves: 57.7%
  Efficiency (%) New leaves: 49.0%
  Efficiency (%) Treated leaves: 67.8%
  Sporulant surface/leaf (%) F0: 37.79%
  Sporulant surface/leaf (%) F1: 27.57%
  Sporulant surface/leaf (%) F2: 10.57%
  Sporulant surface/leaf (%) F-1: 29.57%
  Sporulant surface/leaf (%) F-2: 3.43%
[7]
  Efficiency (%) All leaves: 28.6%
  Efficiency (%) F0: 10.3%
  Efficiency (%) F1: 35.2%
  Efficiency (%) F2: 40.3%
  Efficiency (%) Leaves treated: 37.8%
  Sporulant surface/leaf (%) F0: 20.9%
  Sporulant surface/leaf (%) F1: 20.4%
  Sporulant surface/leaf (%) F2: 18.6%
[8]
  Efficiency (%) All leaves: 33.0%
  Efficiency (%) New leaves: 24.0%
  Efficiency (%) Treated leaves: 44.8%
  Sporulant surface/leaf (%) F0: 41.05%
  Sporulant surface/leaf (%) F1: 42.00%
  Sporulant surface/leaf (%) F2: 15.55%
  Sporulant surface/leaf (%) F-1: 45.16%
  Sporulant surface/leaf (%) F-2: 18.42%
